From patent US9233979B2, “Compounds that are ERK inhibitors” (Merck Sharp & Dohme Corp., priority 2012, dated 2016)

target: phosphorylated active hERK2 enzyme (Homo sapiens (Human), UniProt P28482); test: Active Human ERK2 (hERK2) Activity Assay (IMAP-FP); assay type: biochemical; conditions: Table 6, 0.5 nM hERK2, 30 μM ATP, 10 point titration, read-out: AERK2 IC50
Outline: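 IMAP detection beads in buffer with 24 mM NaCl stopped the reaction, and fluorescence polarization was read after 60 min binding.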

phosphorylated active hERK2 enzyme, sequence (P28482 whole entry): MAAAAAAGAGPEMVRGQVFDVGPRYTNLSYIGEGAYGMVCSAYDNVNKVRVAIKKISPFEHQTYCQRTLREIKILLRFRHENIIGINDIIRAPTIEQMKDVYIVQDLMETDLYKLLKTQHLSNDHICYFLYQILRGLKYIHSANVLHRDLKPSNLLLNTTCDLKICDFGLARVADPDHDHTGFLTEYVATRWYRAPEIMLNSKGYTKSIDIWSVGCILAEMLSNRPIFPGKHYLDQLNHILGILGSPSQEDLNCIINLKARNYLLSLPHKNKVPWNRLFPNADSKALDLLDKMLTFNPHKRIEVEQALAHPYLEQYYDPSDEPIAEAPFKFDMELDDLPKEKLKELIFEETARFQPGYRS

| IC50 | Structure (SMILES) |
| --- | --- |
| 1.9 nM | O=C(Nc1cc2[nH]nc(N3CC4CCC(C3)O4)c2cn1)N[C@H](CO)c1ccccc1 [Example 439, 1-[(1S)-2-hydroxy-1-phenylethyl]-3-[3-(8-oxa-3-azabicyclo[3.2.1]-oct-3-yl)-1H-pyrazolo[4,3-c]-pyridin-6-yl]urea] |
| 0.4 nM | O=C(Nc1cc2[nH]nc(N3CCOCC3)c2cn1)N[C@H](COC(F)F)c1ccccc1 [Example 440, 1-[(1S)-2-(difluoromethoxy)-1-phenylethyl]-3-(3-morpholin-4-yl-1H-pyrazolo[4,3-c]pyridin-6-yl)urea] |
| 0.9 nM | COC[C@@H](NC(=O)Nc1cc2[nH]nc(N3CC4CCC(C3)O4)c2cn1)c1ccccc1 [Example 441, 1-[(1S)-2-methoxy-1-phenylethyl]-3-[3-(8-oxa-3-azabicyclo[3.2.1]-oct-3-yl)-1H-pyrazolo[4,3-c]-pyridin-6-yl]urea] |
| 0.5 nM | CC(C)(O)[C@@H](NC(=O)Nc1cc2[nH]nc(N3CC4CCC(C3)O4)c2cn1)c1ccccc1 [Example 442, 1-[(1S)-2-hydroxy-2-methyl-1-phenylpropyl]-3-[3-(8-oxa-3-azabicyclo[3.2.1]-oct-3-yl)-1H-pyrazolo[4,3-c]-pyridin-6-yl]urea] |
| 0.7 nM | CC(C)(O)[C@@H](NC(=O)Nc1cc2[nH]nc(N)c2cn1)c1ccc(F)cc1 [Example 443, 1-(3-amino-1H-pyrazolo[4,3-c]-pyridin-6-yl)-3-[(1S)-1-(4-fluorophenyl)-2-hydroxy-2-methylpropyl]urea] |
| 1.2 nM | C[C@@H](NC(=O)Nc1cc2[nH]nc(N)c2c(Cl)n1)c1ccccc1 [Example 444, 1-(3-amino-4-chloro-1H-pyrazolo[4,3-c]-pyridin-6-yl)-3-[(1R)-1-phenylethyl]urea] |
| 0.8 nM | CC(C)(O)[C@@H](NC(=O)Nc1cc2[nH]nc(N3CC4CC3CO4)c2cn1)c1ccc(F)cc1 (stereo partly drawn) [Example 446, 1-[(1S)-1-(4-fluorophenyl)-2-hydroxy-2-methylpropyl]-3-[3-(2-oxa-5-azabicyclo[2.2.1]hept-5-yl)-1H-pyrazolo[4,3-c]pyridin-6-yl]urea] |
| 1.5 nM | CC(C)(O)[C@@H](NC(=O)Nc1cc2[nH]nc(N3CC4CC3CO4)c2cn1)c1ccccc1 (stereo partly drawn) [Example 447, 1-[(1S)-2-hydroxy-2-methyl-1-phenylpropyl]-3-[3-(2-oxa-5-azabicyclo[2.2.1]-hept-5-yl)-1H-pyrazolo[4,3-c]-pyridin-6-yl]urea] |
| 0.4 nM | CCNc1n[nH]c2cc(NC(=O)N[C@@H](c3ccc(F)cc3)C(C)(C)O)ncc12 [Example 448, 1-[3-(ethylamino)-1H-pyrazolo[4,3-c]pyridin-6-yl]-3-[(1S)-1-(4-fluorophenyl)-2-hydroxy-2-methylpropyl]urea] |
| 6 nM | C[C@@H](NC(=O)Nc1cc2[nH]nc(N3CC4CC3CO4)c2cn1)c1ccccc1 (stereo partly drawn) [Example 449, 1-[3-(2-oxa-5-azabicyclo[2.2.1]-hept-5-yl)-1H-pyrazolo[4,3-c]-pyridin-6-yl]-3-[(1R)-1-phenylethyl]urea] |
| 4.3 nM | O=C(Nc1cc2[nH]nc(N3CC4CC3CO4)c2cn1)N[C@H](CO)c1ccccc1 (stereo partly drawn) [Example 450, 1-[(1S)-2-hydroxy-1-phenylethyl]-3-[3-(2-oxa-5-azabicyclo[2.2.1]-hept-5-yl)-1H-pyrazolo[4,3-c]-pyridin-6-yl]urea] |
| 3 nM | COC[C@@H](NC(=O)Nc1cc2[nH]nc(N3CC4CC3CO4)c2cn1)c1ccccc1 (stereo partly drawn) [Example 451, 1-[(1S)-2-methoxy-1-phenylethyl]-3-[3-(2-oxa-5-azabicyclo[2.2.1]-hept-5-yl)-1H-pyrazolo[4,3-c]-pyridin-6-yl]urea] |
| 0.7 nM | COc1nc(NC(=O)N[C@H](C)c2ccccc2)cc2[nH]nc(N)c12 [Example 452, 1-(3-amino-4-methoxy-1H-pyrazolo[4,3-c]-pyridin-6-yl)-3-[(1R)-1-phenylethyl]urea] |
| 3.4 nM | C[C@@H](NC(=O)Nc1cc2[nH]nc(N3CC4CCC(C3)O4)c2cn1)c1ccccc1 [Example 453, 1-[3-(8-oxa-3-azabicyclo[3.2.1]-oct-3-yl)-1H-pyrazolo[4,3-c]-pyridin-6-yl]-3-[(1R)-1-phenylethyl]urea] |
| 11.8 nM | CCNc1n[nH]c2cc(NC(=O)N[C@H](C)c3ccccc3)nc(Cl)c12 [Example 454, 1-[4-chloro-3-(ethylamino)-1H-pyrazolo[4,3-c]pyridin-6-yl]-3-[(1R)-1-phenylethyl]urea] |
| 3.7 nM | CC(C)(O)[C@@H](NC(=O)Nc1cc2[nH]nc(NC(=O)N3C[C@H]4COC[C@H]4C3)c2cn1)c1ccc(F)cc1 [Example 457, (3aR,6aS)-N-(6-(3-((S)-1-(4-fluorophenyl)-2-hydroxy-2-methylpropyl)-ureido)-1H-pyrazolo[4,3-c]-pyridin-3-yl)-tetrahydro-1H-furo[3,4-c]pyrrole-5(3H)-carboxamide] |
| 14.3 nM | C[C@@H](NC(=O)Nc1cc2[nH]nc(NC(=O)N3C[C@H]4COC[C@H]4C3)c2cn1)c1ccc(F)cc1 [Example 458, (3aR,6aS)-N-(6-(3-((R)-1-(4-fluorophenyl)ethyl)ureido)-1H-pyrazolo[4,3-c]pyridin-3-yl)tetrahydro-1H-furo[3,4-c]pyrrole-5(3H)-carboxamide] |
